According to patent US20080058297A1, “Heterocyclic Compounds For Preventing And Treating Disorders Associated With Excessive Bone Loss” (Synta Pharmaceuticals Corp., priority 2003, published 2008):
Read-outs that look alike come from different tables or passages of the source.

Key:
[1] = tested on: Human peripheral blood mononuclear cells (PBMC); experiment: Inhibition of osteoclast formation (RANKL/M-CSF induced, TRAP staining); type: cell-based
Procedure: (§1) Human peripheral blood mononuclear cells (PBMC) were isolated from healthy donor blood. The cells were seeded in multi-well plates at 7.5×10^5 cells/ml in RPMI 1640 medium including 10% FBS. Osteoclast formation was induced with 20 ng/ml of recombinant human receptor activator of NF-kB-ligand (RANKL) and 10 ng/ml of human M-CSF in the presence of various doses of test compounds. After 48 hours of culture, RANKL and M-CSF was replenished and further cultured for 2 days. Then, the cultured cells were stained for tartrate-resistant acid phosphatase (TRAP). Osteoclasts were identified as TRAP-positive cells with more than 3 nuclei. Total cell viability was assessed by CCK-8 assay (Dojindo, Gaithersburg, Md.) with 24 hour incubation.
as §1, with “Isolated” for “isolated”

[2] = Total cell viability by CCK-8 assay; type: cell-based; conditions: human
Procedure: as §1
as §1, with “Isolated” for “isolated”

[3] = 96 h, read-out: IC50 (compound concentration required for 50% inhibition of osteoclast formation), Table 1, 20 ng/ml RANKL + 10 ng/ml M-CSF, TRAP-positive cells with more than 3 nuclei
[4] = 96 h, read-out: IC50 (compound concentration required for 50% inhibition of osteoclast formation), Table 2, 20 ng/ml RANKL + 10 ng/ml M-CSF, TRAP-positive cells with more than 3 nuclei
[5] = 96 h, read-out: IC50 (compound concentration required for 50% inhibition of osteoclast formation), Table 3, 20 ng/ml RANKL + 10 ng/ml M-CSF, TRAP-positive cells with more than 3 nuclei

SMILES | CC50 at 24 h ([2]; Table 1, 24 hour incubation) [nM] | IC50 [1, 3] [nM] | CC50 at 24 h ([2]; Table 2, 24 hour incubation) [nM] | IC50 [1, 4] [nM] | other results
C[C@]12CC[C@@H]3c4ccc(O)cc4CC[C@H]3[C@@H]1CC[C@@H]2O [17β-estradiol, reference compound] | – | – | – | – | IC50 ([1]; read-out: IC50 (compound concentration required for 50% inhibition of osteoclast formation), Table 1, 20 ng/ml RANKL + 10 ng/ml M-CSF, TRAP-positive cells with more than 3 nuclei): 78 nM; IC50 ([1]; read-out: IC50 (compound concentration required for 50% inhibition of osteoclast formation), Table 2, 20 ng/ml RANKL + 10 ng/ml M-CSF, TRAP-positive cells with more than 3 nuclei): 78 nM; IC50 ([1]; read-out: IC50 (compound concentration required for 50% inhibition of osteoclast formation), Table 3, 20 ng/ml RANKL + 10 ng/ml M-CSF, TRAP-positive cells with more than 3 nuclei): 78 nM
Cc1cccc(/C=N/Nc2cc(N3CCOCC3)nc(OCCc3ccccn3)n2)c1 [Compound 12, N-(3-methyl-benzylidene)-N′-[6-morpholin-4-yl-2-(2-pyridin-2-yl-ethoxy)-pyrimidin-4-yl]-hydrazine] | 3250 | 15 | – | – | –
Cc1cccc(/C=N/Nc2cc(N3CCOCC3)nc(OCCc3cccc[n+]3[O-])n2)c1 [Compound 28, N-(3-methyl-benzylidene)-N′-{6-morpholin-4-yl-2-[2-(1-oxy-pyridin-2-yl)-ethoxy]-pyrimidin-4-yl}-hydrazine] | > 1000 | 70 | – | – | –
Cc1cccc(C=NNc2cc(N3CCOCC3)nc(OCC(O)c3ccccn3)n2)c1 (stereo not shown) [Compound 42, 2-{4-[N′-(3-Methyl-benzylidene)-hydrazino]-6-morpholin-4-yl-pyrimidin-2-yloxy}-1-pyridin-2-yl-ethanol] | > 1000 | 8 | – | – | –
Cc1cccc(/C=N/Nc2cc(N3CCOCC3)nc(OCCc3ccc(O)cn3)n2)c1 [Compound 43, 6-(2-{4-[N′-(3-Methyl-benzylidene)-hydrazino]-6-morpholin-4-yl-pyrimidin-2-yloxy}-ethyl)-pyridin-3-ol] | > 1000 | 12 | – | – | –
OCc1cccc(/C=N/Nc2cc(N3CCOCC3)nc(OCCc3ccc(O)cn3)n2)c1 [Compound 44, 6-(2-{4-[N′-(3-Hydroxymethyl-benzylidene)-hydrazino]-6-morpholin-4-yl-pyrimidin-2-yloxy}-ethyl)-pyridin-3-ol] | > 1000 | 17 | – | – | –
Cc1[nH]c2ccc(Nc3nc(OCCc4ccccn4)nc(N4CCOCC4)n3)cc2c1C [Compound 102] | – | – | > 1000 | 3 | –
COc1ccc(CCOc2nc(Nc3ccc4c(c3)oc3ccccc34)nc(N3CCOCC3)n2)cc1OC [Compound 113, Dibenzofuran-3-yl-{4-[2-(3,4-dimethoxy-phenyl)-ethoxy]-6-morpholin-4-yl-[1,3,5]triazin-2-yl}-amine] | – | – | > 1000 | 12 | –
c1cncc(OCCOc2nc(Nc3ccc4c(c3)oc3ccccc34)nc(N3CCOCC3)n2)c1 [Compound 114, Dibenzofuran-3-yl-{4-morpholin-4-yl-6-[2-(pyridin-3-yloxy)-ethoxy]-[1,3,5]triazin-2-yl}-amine] | – | – | > 1000 | 24 | –
Cc1[nH]c2cc(Nc3nc(OCCOc4cccnc4)nc(N4CCOCC4)n3)ccc2c1C [Compound 115, (2,3-Dimethyl-1H-indol-6-yl)-{4-morpholin-4-yl-6-[2-(pyridin-3-yloxy)-ethoxy]-[1,3,5]triazin-2-yl}-amine] | – | – | > 1000 | 16 | –
C(=NNc1nc(OCCc2ccccn2)nc(N2CCOCC2)n1)c1c[nH]c2ccccc12 [Compound 116, N-(1H-indol-3-ylmethylene)-N′-[4-morpholin-4-yl-6-(2-pyridin-2-yl-ethoxy)-[1,3,5]triazin-2-yl]-hydrazine] | – | – | > 10000 | 35 | –
Cc1cccc(Nc2nc3c(N4CCOCC4)nc(OCCOc4ccccn4)nc3[nH]2)c1 [Example 63, {6-morpholin-4-yl-2-[2-(pyridin-2-yloxy)-ethoxy]-9H-purin-8-yl}-m-tolyl-amine] | – | – | – | – | CC50 at 24 h ([2]; Table 3, 24 hour incubation): > 1000 nM; IC50 [1, 5]: 3 nM
Cc1cccc(Nc2nc(N3CCOCC3)c3nc(Nc4cccc(C)c4)[nH]c3n2)c1 [Example 79, 6-morpholin-4-yl-N^2,N^8-di-m-tolyl-9H-purine-2,8-diamine] | – | – | – | – | CC50 at 24 h ([2]; Table 3, 24 hour incubation): > 1000 nM; IC50 [1, 5]: 9 nM
Cc1cccc(Nc2nc(N3CCOCC3)c3nc(Nc4cccc(C)c4)n(C)c3n2)c1 [Example 116, 9-Methyl-6-morpholin-4-yl-N^2,N^8-di-m-tolyl-9H-purine-2,8-diamine] | – | – | – | – | CC50 at 24 h ([2]; Table 3, 24 hour incubation): > 1000 nM; IC50 [1, 5]: 2 nM
COc1ccc(N(C)c2nc(N3CCOCC3)c3nc(Nc4cccc(C)c4)[nH]c3n2)cc1 [Example 117, N^2-(4-Methoxy-phenyl)-N^2-methyl-6-morpholin-4-yl-N^8-m-tolyl-9H-purine-2,8-diamine] | – | – | – | – | CC50 at 24 h ([2]; Table 3, 24 hour incubation): > 1000 nM; IC50 [1, 5]: 12 nM
